In US10420747B2 (priority 2016, dated 2019):

Columns and labels:
[1] = test system: HSP90 and HSP70; assay: Western blotting of AR molecular chaperones; type: cell-based, human; conditions: LNCaP and 22RV1, 12 hours
Method: Cells were lysed and AR, HSP90 and HSP70 protein levels were measured by Western blot analysis.
Lysates were fractionated on polyacrylamide gels and transferred to nitrocellulose. The blots were probed with specific antibodies followed by secondary antibody then membranes were examined using the LI-COR Odyssey infrared imaging system (LI-COR Biotechnology, Lincoln Nebr.). […] The β-actin antibody (1:10000) was purchased from Sigma (St. Louis, Mo.).

[2] = test system: CYP2C11, CYP3A1/2 and CYP1A2; conditions: mouse, in vivo
Method: FIG. 6A-FIG. 6H. Pharmacokinetic studies of AIL. […] Images show tumors at harvest (30 days after treatment). Scale bar, 1 cm. […] AIL or vehicle control was measured by Western blotting analysis (D) and the livers were photographed and stained with HE (e). Scale bar, the black scale bar is 1 cm (top) and the white scale bar is 50 μm (bottom). […] Scale bar, 1 cm.

[3] = in vivo; design: species or system rat; conditions: for T1/2: rats
Method: A simple and sensitive method for the determination of Ailanthonein plasma was developed, using high-performance liquid chromatography-tandem mass spectrometry (HPLC-MS/MS). Brusatol was used as an internal standard. […] The details of this HPLC-MS/MS method and sample preparation are described in our previous study^37.
The statistical analysis was performed by SPSS 22.0 software. The differences between control group and experimental groups were determined by one-way ANOVA. Since treatment and time course was investigated, two-way ANOVA followed by post hoc test was also applied. Data was expressed as mean and standard deviation (s.d.) and P<0.05 was considered significant. Pharmacokinetic parameters were calculated by WinNonlin software version 5.2.1 (Pharsight Corporation, Mountain View, USA) based on noncompartmental analysis.
Sprague-Dawley rats (purchased from Shanghai SLAC laboratory animal Co. Ltd., Shanghai, China) were fasted for 12 h with free access to water prior to the pharmacokinetic study. The rats were randomized into two groups for oral administration (5 mg/kg) and intravenous injection (1 mg/kg). Blood samples were collected from the orbital plexus into heparinized centrifuge tubes at fifteen different time points between 5 min to 36 h for the oral administration group and nine time points between 5 min to 6 h for the intravenous one. The pharmacokinetic parameters were calculated by WinNonlin software version 5.2.1 based on noncompartmental analysis. Oral bioavailability was calculated as F (%)=AUC0-∞(p.o.)/AUC0-∞(i.v.)×Dose (i.v.)/Dose (p.o.).

[4] = test system: c4-2b; assay: SRB cell growth assay, androgen-starved cells with R1881; conditions: androgen-starved c4-2b, 0.1 nM R1881, 96 hours; 10 μM BIC, 10 μM MDV, 0.1 μM AIL
[5] = test system: 22RV1; assay: as above; conditions: androgen-starved 22RV1, 0.1 nM R1881, 96 hours; 10 μM BIC, 10 μM MDV, 0.1 μM AIL
[6] = test system: LNCaP cells; assay: as above; conditions: 0.1 nM R1881, 96 hours, 10 μM BIC, 10 μM MDV, 0.1-0.4 μM AIL
[7] = test system: VCaP xenografts; assay: Subcutaneous VCaP xenograft model; type: in vivo, mouse; conditions: 10 mg/kg MDV or 2 mg/kg AIL i.p., 32 days
Method: (A-C) 22RV1 (A), LNCaP (B) and Vcap (C) cells were injected with 0.1 ml PBS (22RV1) or Matrigel (LNCaP, Vcap) into the right flank of BALB/c-nude. […] Tumor volume and the mouse body weight were measured once a week. The mice were sacrificed after 28 days (22RV1), 49 days (LNCaP) or 32 days (Vcap) and the tumors from each group of mice were harvested and images were taken. […] Data represent the mean±s.d.
BALB/c-nude mice (6-8 weeks old, male) were purchased from the Sino-British Sippr/BK Lab Animal Co., Ltd (Shanghai, China) and maintained under pathogen-free conditions. The animal use protocol was approved by the Institutional Animal Care and Use Committee of East China Normal University. […] The tumor volume and mouse body weight were measured twice a week. The tumor volume was calculated using the following equation: tumor volume (V)=length×width×width×0.52.
BALB/c-nude mice (6-8 week old, male) were purchased from the Sino-British Sippr/BK Lab Animal Co., Ltd (Shanghai, China) and maintained under pathogen-free conditions. […] The tumor volume and mouse body weight were measured twice a week. The tumor volume was calculated using the following equation: tumor volume (V)=length×width×width×0.52.

[8] = test system: LNCaP-MDV3100-R cells; assay: SRB cell growth assay, MDV3100-resistant cells; conditions: 72 hours, 20 μM BIC, 20 μM MDV, 0.1 μM AIL
Method: Cell growth was determined by SRB assay.
The half maximal inhibitory concentration (IC50) was calculated using GraphPad Prism 5.0 (GraphPad, San Diego, Calif.).

[9] = test system: 22RV1-luc orthotopic xenografts; assay: Orthotopic castration resistant prostate cancer model; type: in vivo, mouse; conditions: castrated mice, 2 mgkg^−1 AIL or 10 mgkg^−1 MDV i.p. once per day, 28 days
Method: (A,B) The dorsolateral prostate of male BALB/c-nude mice was injected with 1×10^6 22RV1-luc cells in 30 μl matrigel. […] After 28 days, mice were sacrificed and the local tumors were removed and volumes and weight of the tumors were measured (A).
For orthotopic castration resistant prostate cancer xenografts, male BALB/c-nude mice (8-9 weeks of age) were anesthetized using 150 mgkg^−1 2,2,2-tribromethanol plus 350 mgkg^−1 tert-amyl alcohol and then 5×10^5 22RV1-luc cells suspended in 30 μl 50% Matrigel were surgically injected into the dorsolateral prostate lobes. One week after injection, the tumor-bearing mice were castrated and randomly assigned to three groups. […] Prostate tumor growth and local metastasis were monitored weekly using the IVIS Imaging System (Xenogen Corporation, Alameda, Calif.). Images and measurements of bioluminescent signals were acquired and analyzed using LivingImage and Xenogen software^52.

[10] = test system: AR-regulated genes (PSA, TMPRSS2, FKBP5, SLC45A3, NDRG1 mRNA); assay: Quantitative real-time PCR of AR-regulated genes; conditions: 22RV1 cells, 10 nM R1881, 10 μM MDV or 0.2 μM AIL, 12 hours
Method: The genes expression was measured byquantitative-PCR.
Total RNA was extracted using TRIzol (Takara, Japan) according to the manufacturer's instructions. 1 μg of total RNA was used for cDNA synthesis using a cDNA reverse transcription kit (Takara, Japan). Real-time PCR was performed in triplicate using gene-specific primers on a Stratagene Mx3005P PCR system (Agilent Technologies) machine. The mRNA expression levels were normalized to β-actin expression or GAPDH.

[11] = Sprague-Dawley, rat, in vivo, iv, 1 mg/kg
[12] = Sprague-Dawley, rat, in vivo, po, 5 mg/kg

SMILES: C=CCNC1=C2C[C@@H](C)C[C@H](OC)[C@H](O)[C@@H](C)/C=C(\C)[C@H](OC(N)=O)[C@@H](OC)/C=C\C=C(/C)C(=O)NC(=CC1=O)C2=O [17-AAG]
- HSP90 and HSP70 protein levels [1]: induced up-regulation of HSP90 and HSP70 protein

SMILES: C=C1[C@@H](O)[C@]2(O)OC[C@]34[C@H]2[C@@]2(C)[C@H](O)C(=O)C=C(C)[C@@H]2C[C@H]3OC(=O)C[C@@H]14 [AIL, 11β,20-Epoxy-1β,11,12α-trihydroxypicrasa-3,13(21)-diene-2,16-dione]
- expression of CYP enzymes in liver [2]: did not influence the expression
- Bioavailability (oral) ([3]; Sprague-Dawley, rat, in vivo): 25.7%
- bioavailability ([3]; Sprague-Dawley, rat, in vivo): > 20%
- AUC0-t [3, 11]: 57874.3 ± 6871.1 ng·min/mL
- AUC0-∞ [3, 11]: 61517.4 ± 5986.2 ng·min/mL
- AUC0-t [3, 12]: 67324.5 ± 7405.3 ng·min/mL
- AUC0-∞ [3, 12]: 79053.9 ± 14616.6 ng·min/mL
- absorption, elimination and distribution after oral administration ([3]; rat, in vivo, po): absorbed quickly, eliminated rapidly and distributed widely in tissues
- T1/2 ([3]; i.v. 1 mg kg^−1, mean ± s.d.): 1.888 ± 0.66 h
- T1/2 ([3]; p.o. 5 mg kg^−1, mean ± s.d.): 12.17 ± 2.598 h

SMILES: CNC(=O)c1ccc(N2C(=S)N(c3ccc(C#N)c(C(F)(F)F)c3)C(=O)C2(C)C)cc1F [MDV]
- cell growth (SRB) [4]: could not significantly inhibit cell growth
- cell growth (SRB) [5]: could not significantly inhibit cell growth
- cell growth (SRB) [6]: effectively blocked cell growth
- xenograft sensitivity (tumor volume) [7]: still responded
- cell growth (SRB) [8]: totally resistant
- reduction of tumor volume [9]: 15%
- PSA mRNA level in the presence of R1881 [10]: decreased
